Assay results as given in US12421226B2, “Heteroaryl compounds as necrosis inhibitors, composition and method using the same” (Accro Bioscience (HK), priority 2019, dated 2025).
pIC50: −log10 of the molar value.

Experiments:
[1] = tested on: HT29 cells; test: Necroptosis inhibition in HT29 cell assay (TNF-α/Smac mimetic/z-VAD induced, cell viability); type: cell-based; conditions: then TNF-α 40 ng/mL + Smac mimetic 100 nM + z-VAD 20 μM for 48 hours
Description: 1. Compounds Tested for Necroptosis Inhibition Activities in HT29 Cell Assay
(§1) For this assay, HT29 cells were added to 96-well plates and then were pre-treated with 10 μM of the test compound for one hour. Then the cells were treated with tumor necrosis factor alpha (TNF-α, 40 ng/mL), Smacmimetic (cIAP inhibitor) (100 nM) and z-VAD (capase inhibitor, from calbiochem) (20 μM) for 48 hours, and the viability of cells was quantified. DMSO pretreatment group was used as negative controls, Nec-1 (known necroptosis inhibitor, from Biomol) pretreatment group was used as positive controls.

[2] = tested on: L929 mouse skin fibroblast cells; test: Necroptosis inhibition in L929 cell assay (TNF-α/z-VAD induced, cell viability by ATP levels); type: cell-based; conditions: 1 h pre-treatment with compound, then TNF-α 40 ng/mL + z-VAD 20 μM for 48 hours
Description: 2. Compounds Tested for Necroptosis Inhibition Activities in L929 Cell Assay
as §1, with “Mouse L929 mouse skin fibroblast” for “For this assay, HT29”, “TNF-α (40 ng/mL, lab-made)” for “tumor necrosis factor alpha (TNF-α, 40 ng/mL), Smacmimetic (cIAP inhibitor) (100 nM)”, “quantified by detecting adenosine triphosphate (ATP) levels.” for “quantified.”

[3] = Homo sapiens, HT-29, 1 h pre-treatment with compound

Structure (SMILES)	pIC50 [1, 3]	pIC50 ([2]; Mus musculus)	pIC50 ([1]; 1 h pre-treatment with compound)	pIC50 [2]
O=C(Nc1cn2cc(-c3cnc4ccn(C(=O)OC5CCOCC5)c4c3)ccc2n1)C1CC1 [Compound C6, tetrahydropyran-4-yl 6-[2-(cyclopropanecarbonylamino)imidazo-[1,2-a]pyridin-6-yl]pyrrolo[3,2-b]pyridine-1-carboxylate]	7.25	7.30		
O=C(Nc1nc2ccc(-c3cnc4ccn(C(=O)CC5CCOCC5)c4c3)cc2s1)C1CC1 [Compound C8, N-[6-[1-(2-tetrahydropyran-4-ylacetyl)pyrrolo[3,2-b]pyridin-6-yl]-1,3-benzothiazol-2-yl]cyclopropanecarboxamide]	6.36	7.77		
O=C(NC1CCOCC1)c1csc2ncc(-c3ccc4nc(NC(=O)C5CC5)sc4c3)cc12 [Compound C12, 5-[2-(cyclopropanecarbonylamino)-1,3-benzothiazol-6-yl]-N-tetrahydropyran-4-yl-thieno[2,3-b]pyridine-3-carboxamide]	8.14	8.82		
O=C(NC1CCOCC1)c1nsc2ncc(-c3ccc4nc(NC(=O)C5CC5)sc4c3)cc12 [Compound C14, 5-[2-(cyclopropanecarbonylamino)-1,3-benzothiazol-6-yl]-N-tetrahydropyran-4-yl-isothiazolo[5,4-b]pyridine-3-carboxamide]	8.33	8.89		
O=C(NC1CCCCC1)c1csc2ncc(-c3ccc4nc(NC(=O)C5CC5)sc4c3)cc12 [Compound C18, N-cyclohexyl-5-[2-(cyclopropanecarbonylamino)-1,3-benzothiazol-6-yl]thieno[2,3-b]pyridine-3-carboxamide]	9.00	9.52		
CNC(=O)Nc1nc2ccc(-c3cnc4scc(C(=O)NC5CCCCC5)c4c3)cc2s1 [Compound C20, N-cyclohexyl-5-[2-(methylcarbamoylamino)-1,3-benzothiazol-6-yl]thieno[2,3-b]pyridine-3-carboxamide]	8.80	9.22		
O=C(NC1CCCCC1)c1nsc2ncc(-c3ccc4nc(NC(=O)C5CC5)sc4c3)cc12 [Compound C23, N-cyclohexyl-5-[2-(cyclopropanecarbonylamino)-1,3-benzothiazol-6-yl]isothiazolo[5,4-b]pyridine-3-carboxamide]	8.28	8.77		
O=C(NC1CCC(F)(F)CC1)c1nsc2ncc(-c3ccc4nc(NC(=O)C5CC5)sc4c3)cc12 [Compound C30, 5-[2-(cyclopropanecarbonylamino)-1,3-benzothiazol-6-yl]-N-(4,4-difluorocyclohexyl)isothiazolo[5,4-b]pyridine-3-carboxamide]	8.00	9.10		
O=C(Nc1nc2ccc(-c3cnc4ccn(C(=O)NC5CCCCC5)c4c3)cc2s1)C1CC1 [Compound C33, N-cyclohexyl-6-[2-(cyclopropanecarbonylamino)-1,3-benzothiazol-6-yl]pyrrolo[3,2-b]pyridine-1-carboxamide]	8.34	9.52		
CN1CCC(NC(=O)c2nsc3ncc(-c4ccc5nc(NC(=O)C6CC6)sc5c4)cc23)CC1 [Compound C42, 5-(2-(cyclopropanecarboxamido)benzo[d]thiazol-6-yl)-N-(1-methylpiperidin-4-yl)isothiazolo[5,4-b]pyridine-3-carboxamide]	5.52	6.49		
CN1C(=O)C(Cc2c[nH]c3ccccc23)NC1=S (stereo not shown) [Nec-1, reference compound]			6.52	5.90
